Read-outs that look alike come from different tables or passages of the source.
Tested on: 5-LO mediated product formation
Test: 5-LO mediated product formation in intact neutrophils stimulated with A23187 (cell-based)
Design: species or system human
Settings: for IC50: Neutrophil
Description: Cell based and cell-free assays carried out in biological studies, immunofluorescence microscopy analysis and zymosan-induced peritonitis in mice are performed as described hereinabove (Pegola, C. and et al., British J. Pharmacology, 2014, D01:10.1111/bph.12625). In the cell based assays (intact neutrophils or monocytes), 5-LO mediated product formation is started, after pre-incubation with test compounds (or control DMSO) for 15 min. at 37 °C, with addition of Ca-ionophore A23187 (2.5 µM) to the fresh 5 x 10^6 neutrophils or monocytes suspended in 1 ml of PGC buffer (phosphate buffered saline (PBS) solution containing 1 mg ml^-1 glucose and 1mM CaCl2, pH 7.4). After the incubation for 10 min. at 37 °C, the reaction is ended with addition of 1 ml of methanol, and 30 µL 1 N HCl, 200 ng prostaglandin B1 and 500 µL PBS are added to the mixture. In cell-free assays (isolated 5-LO and cell homogenates), human recombinant 5-LO protein or 40,000g supernatant is added to 1 ml of 5-LO reaction mixture (PBS, pH 7.4, 1 mM EDTA, 1 mM ATP), and then incubated with test compounds (or control DMSO) for 10 min. at 4°C, heated to 37 °C and 2 mM CaCl2 as well as AA at certain concentrations are added. The reaction is ended as described for the cell-based assays. Resulting 5-LO mediated products are extracted and analysed by the known method of high pressure liquid chromatography (HPLC) (Pergola, C. Proc Natl. Acad. Sci. U.S.A. 2008, 105, 19881). 5-LO mediated product formation (LTB4 and all trans isomers, and 5 (S)-hydro(pero)xy-6-trans-8, 11, 14-cis-eicosatetraenoic acid, 5-H(p)ETE) is expressed as ng per 10^6 cell. Cysteinyl-LTs have not been analyzed because that the amount of C4, D4 and E4 and LTB4 oxidation products are below the detection limit.
Compounds were tested in intact human neutrophils stimulated with 2.5 µM A23187 under cell based conditions and on purified 5-LO under cell free conditions. ^aData are given as remaining activity as a percentage of control (100%) at 10 µM or 1 µM inhibitor concentrations (means ± SE, n = 3-6).
Compound 9hj inhibited 5-LO mediated product formation with IC50 of 60 nM in human neutrophils. Neutrophils are stimulated with Ca-ionophore A23187 (2.5 µM), without the addition of exogenous arachidonic acid (AA), after pre-incubation with 9hj or vehicle (0.1 % DMSO). 100% controls correspond to 275.7 ng mL^-1 of 5-LO mediated products (Figure 1).
100% controls correspond to 328.97 ng mL^-1 of 5-LO mediated products.

- IC50 (Homo sapiens, A23187 (2.5 µM), without exogenous AA, vehicle 0.1 % DMSO (Figure 1), read-out: IC50 5-LO mediated product formation in human neutrophils): 0.06 µM
- IC50 (intact human neutrophils stimulated with 2.5 µM A23187, mean ± SE, n = 3-4, read-out: Inhibition of purified 5-LO activity IC50 (µM) cell based): 0.24 µM
SMILES: O=C(O)c1noc(-c2ccc(OCc3ccc4ccccc4n3)cc2)c1-c1ccc(Cl)cc1 [Compound 9hj, 4-(4-Chlorophenyl)-5-(4-(quinolin-2-ylmethoxy)phenyl)isoxazole-3-carboxylic acid]
- activity at 1 µM (PMNL, remaining activity at 1 µM inhibitor, human neutrophils, 2.5 µM A23187, means ± SE, n = 3-6, read-out: 5-LO mediated product formation in intact neutrophils (PMNL) (% of control) at 1 µM): 12.1 ± 5.26%
- activity at 10 µM (PMNL, remaining activity at 10 µM inhibitor, human neutrophils, 2.5 µM A23187, means ± SE, n = 3-6, read-out: 5-LO mediated product formation in intact neutrophils (PMNL) (% of control) at 10 µM): 2.73 ± 1.41%

Reference: patent publication EP2949653A1, “ISOXAZOLE DERIVATIVES AS LEUKOTRIENE BIOSYNTHESIS INHIBITORS” (Banoglu, Erden, priority 2014, dated 2015)
